These are literature values, as cited in patent US12403129B2, “Isotope-enriched 3-amino-1-propanesulfonic acid derivatives for the treatment of cerebrovascular disease” (RISEN (SUZHOU) PHARMA TECH CO., LTD., priority 2021, dated 2025).

Entries after “also recorded” stand apart in the source; their conditions may differ.

For data set [1], the target named is interaction between PSD95 and nNOS (Homo sapiens, UniProt P29475+P78352). As to conditions: by blocking the interaction between PSD95 and nNOS; cited from earlier work.
The conditions of data set [2]: produces three potential metabolites; major metabolite 2-carboxyethanesulfonic acid; cited from earlier work.
For data set [3] the following is noted: cited from earlier work.
[4] abbreviates: 2-h time point, oral, 0.72 mmol/kg.

Chain of interaction between PSD95 and nNOS (P78352 whole entry): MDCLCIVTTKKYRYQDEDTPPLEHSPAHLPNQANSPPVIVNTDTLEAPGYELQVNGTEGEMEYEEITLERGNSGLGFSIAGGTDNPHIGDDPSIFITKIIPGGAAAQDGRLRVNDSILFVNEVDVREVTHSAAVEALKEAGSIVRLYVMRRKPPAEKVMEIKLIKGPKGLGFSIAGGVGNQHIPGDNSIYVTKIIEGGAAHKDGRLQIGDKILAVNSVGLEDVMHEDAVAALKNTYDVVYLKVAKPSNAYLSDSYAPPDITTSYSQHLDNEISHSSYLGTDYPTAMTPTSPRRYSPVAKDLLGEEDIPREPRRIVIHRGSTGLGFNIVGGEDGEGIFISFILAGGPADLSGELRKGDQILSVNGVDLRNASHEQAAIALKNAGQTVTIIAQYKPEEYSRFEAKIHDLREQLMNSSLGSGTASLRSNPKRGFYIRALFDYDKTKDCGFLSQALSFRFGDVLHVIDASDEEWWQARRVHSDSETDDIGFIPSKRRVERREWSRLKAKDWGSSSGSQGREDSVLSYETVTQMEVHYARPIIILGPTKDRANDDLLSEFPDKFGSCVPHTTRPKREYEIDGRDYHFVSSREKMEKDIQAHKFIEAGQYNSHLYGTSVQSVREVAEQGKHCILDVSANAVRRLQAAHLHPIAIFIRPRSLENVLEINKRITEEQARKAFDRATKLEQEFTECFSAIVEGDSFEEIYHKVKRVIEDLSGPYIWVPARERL
Chain of interaction between PSD95 and nNOS (P29475 whole entry): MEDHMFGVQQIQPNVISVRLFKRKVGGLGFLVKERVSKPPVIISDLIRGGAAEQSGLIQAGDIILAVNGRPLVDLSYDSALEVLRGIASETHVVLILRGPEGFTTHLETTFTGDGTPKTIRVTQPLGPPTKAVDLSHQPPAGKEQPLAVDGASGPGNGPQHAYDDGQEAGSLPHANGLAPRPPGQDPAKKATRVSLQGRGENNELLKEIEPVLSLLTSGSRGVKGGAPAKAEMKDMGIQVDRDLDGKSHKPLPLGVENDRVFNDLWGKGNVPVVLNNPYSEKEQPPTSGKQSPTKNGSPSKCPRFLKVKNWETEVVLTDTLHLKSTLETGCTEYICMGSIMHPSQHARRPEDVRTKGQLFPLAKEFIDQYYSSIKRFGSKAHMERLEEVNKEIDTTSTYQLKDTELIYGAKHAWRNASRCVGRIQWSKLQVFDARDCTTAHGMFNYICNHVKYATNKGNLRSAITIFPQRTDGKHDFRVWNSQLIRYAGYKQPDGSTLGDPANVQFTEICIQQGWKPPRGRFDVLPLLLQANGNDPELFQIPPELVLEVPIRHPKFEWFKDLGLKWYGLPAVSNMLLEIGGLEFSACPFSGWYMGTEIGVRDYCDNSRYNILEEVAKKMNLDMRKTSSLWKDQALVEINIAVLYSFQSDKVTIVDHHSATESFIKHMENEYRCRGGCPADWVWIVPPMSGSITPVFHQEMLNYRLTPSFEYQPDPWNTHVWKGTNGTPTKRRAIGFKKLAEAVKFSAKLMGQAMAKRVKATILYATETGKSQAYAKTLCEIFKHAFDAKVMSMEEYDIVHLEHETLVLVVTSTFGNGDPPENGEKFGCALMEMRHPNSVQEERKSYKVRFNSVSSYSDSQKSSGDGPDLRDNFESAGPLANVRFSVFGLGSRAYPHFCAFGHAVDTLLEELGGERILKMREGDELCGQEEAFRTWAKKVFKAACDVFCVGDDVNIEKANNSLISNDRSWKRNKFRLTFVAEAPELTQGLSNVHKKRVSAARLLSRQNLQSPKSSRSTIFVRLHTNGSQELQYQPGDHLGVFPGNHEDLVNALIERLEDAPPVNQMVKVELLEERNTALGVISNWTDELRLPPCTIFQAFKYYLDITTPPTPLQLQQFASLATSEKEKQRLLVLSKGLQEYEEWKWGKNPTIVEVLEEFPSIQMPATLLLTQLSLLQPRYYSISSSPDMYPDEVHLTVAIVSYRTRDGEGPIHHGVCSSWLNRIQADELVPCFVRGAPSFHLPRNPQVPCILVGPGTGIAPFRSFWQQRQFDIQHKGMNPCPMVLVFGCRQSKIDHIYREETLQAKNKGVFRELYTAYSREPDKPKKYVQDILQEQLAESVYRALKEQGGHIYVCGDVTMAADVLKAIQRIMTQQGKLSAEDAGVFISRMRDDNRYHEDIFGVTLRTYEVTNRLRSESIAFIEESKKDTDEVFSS

Turning to `NCCCS(=O)(=O)O` [Tramiprosate, 3-amino-1-propanesulfonic acid], in data set [1], the “protection of neurons from ischemic stroke” value was “can protect neurons from ischemic stroke”. The metabolism in vivo entry in data set [2] is “extensively metabolized”.

For the molecule `[2H]C([2H])(N)CCS(=O)(=O)O` [compound 1, 3-amino-3,3-dideuterium-1-propanesulfonic Acid], in data set [3] (setting [4]), the “concentration of metabolite (2-carboxy-1-ethanesulfonic acid) in plasma compared to 3APS (of natural abundance)” value was “much lower” and the “plasma drug concentration compared to 3APS (of natural abundance)” value is on record as “higher”. The “plasma drug exposure compared to 3APS (of natural abundance)” value in data set [3] (mole-equivalent oral dose (0.72 mmol/kg), mouse plasma) was “improved plasma drug exposure significantly”. In data set [3] (mole-equivalent oral dose, mouse), the “drug metabolism / metabolic profile compared to 3APS” value was “delayed drug metabolism; also recorded: delayed metabolic profile”.
